Legend:
[1] = test system: α-Syn; set-up: method as in PMID 35139916; conditions: co-administration with CPA; cited from earlier work
[2] = extrapolated from unbound CLint in mouse liver microsomes, well-stirred model; cited from earlier work
[3] = set-up: method as in PMID 34187286; conditions: cited from earlier work
[4] = In vivo metabolic stability, radio-HPLC of tissue extracts; set-up: species or system CD-1 mice; conditions: liver and pancreas extracts, 40 min p.i.
Method: The liver, pancreas, and brain were collected, washed with saline, placed in water/acetonitrile, and homogenized using the Fisherbrand™ 150 Handheld Homogenizer (Thermo Fisher Scientific, Waltham, MA, USA). The samples were centrifuged at 14,000 relative centrifugal force (rcf) for 5 min (AccuSpin Micro 17, Thermo Fisher Scientific, Waltham, MA, USA). The supernatants were collected and filtered using 0.22 μm organic Millipore-Sigma filters (Oakville, ON, Canada). The clarified filtrate was injected into the HPLC and radioanalytes separated by a reverse phase column (5 μm C18, 9.4 × 250 mm reverse phase column, PN-990967-202, flow rate 5.00 mL/min) using the same gradient elution as described in Table 1. The elution of radioactive metabolites was detected using the radiation detector as described above. […] The radioactivity in each organ/tissue was measured using a calibrated automatic gamma counter (2480 Perkin Elmer, Waltham MA, USA) and the tissue uptake was expressed as a percentage of injected dose (ID) per gram (% ID/g). All radioactivity measurements were corrected for decay. Data are shown as average mean± SEM, calculated using replication for each sample.

[5] = Micro-PET/CT dynamic imaging; assay type: in vivo, CD-1 mice
Method: The acquisition of dynamic PET data (10 × 10, 8 × 15, 6 × 20, 6 × 30, 4 × 60, 1 × 100, 4 × 100, 6 × 150, 4 × 300) was started immediately after radiotracer injection, followed by a 1 min CT scan. PET/CT images were registered and reconstructed automatically by the GNEXT system. PET images were reconstructed using a 3D-ordered Subset Expectation Maximization algorithm with 24 subsets and 3 iterations. CT images were reconstructed using a Modified Feldkamp algorithm. All data were analyzed using Vivoquant software (IviCRO) (InVicro, Needham, MA, USA). CT images were used to define anatomical regions of interest (ROIs) through PET/CT image co-registration. The quantification of activity concentration in the brain was performed by drawing ROIs and the mean and maximum standard uptake values (SUVs) were determined using the formula: SUV = [(MBq/mL) × (animal wt. (g))/injected dose (MBq)].

[6] = Ex vivo biodistribution in healthy CD-1 mice; conditions: for Biodistribution, blood / Biodistribution, bone / Biodistribution, brain / Biodistribution, heart / Biodistribution, kidney / Biodistribution, large intestine / Biodistribution, liver / Biodistribution, lung / Biodistribution, small intestine / Biodistribution, spleen: tail vein injection
Method: The liver, pancreas, and brain were collected, washed with saline, placed in water/acetonitrile, and homogenized using the Fisherbrand™ 150 Handheld Homogenizer (Thermo Fisher Scientific, Waltham, MA, USA). The samples were centrifuged at 14,000 relative centrifugal force (rcf) for 5 min (AccuSpin Micro 17, Thermo Fisher Scientific, Waltham, MA, USA). The supernatants were collected and filtered using 0.22 μm organic Millipore-Sigma filters (Oakville, ON, Canada). The clarified filtrate was injected into the HPLC and radioanalytes separated by a reverse phase column (5 μm C18, 9.4 × 250 mm reverse phase column, PN-990967-202, flow rate 5.00 mL/min) using the same gradient elution as described in Table 1. The elution of radioactive metabolites was detected using the radiation detector as described above. […] The mice were euthanized (anesthesia followed by cervical dislocation followed by cardiac puncture and blood draw) at 5, 10, 20, 40, and 60 min p.i., and different organs were harvested (blood, liver, small intestine, kidney, spleen, lung, heart, large intestine, bone, and brain), washed and placed in pre-weighed tubes. The radioactivity in each organ/tissue was measured using a calibrated automatic gamma counter (2480 Perkin Elmer, Waltham MA, USA) and the tissue uptake was expressed as a percentage of injected dose (ID) per gram (% ID/g). All radioactivity measurements were corrected for decay. Data are shown as average mean± SEM, calculated using replication for each sample.

In the case of `NC1CCc2ccccc21` (stereo not drawn) [1-aminoindan], the “CPA-induced α-Syn aggregation and neurodegeneration” value [1] is given as “prevented the CPA-induced α-Syn aggregation and neurodegeneration”.

In the case of `Cn1c(=O)c2c(nc(CCCCCCNC3CCc4ccccc43)n2CCCF)n(C)c1=O` (stereo not drawn) [^19F–C8–6–I], the “Predicted in vivo clearance in mouse plasma, CLp” value [2] is listed as 36.0 mL/min/kg, the “Parent remaining in liver microsomes” value ([3]; 1 h incubation, human, mouse and rat liver microsomes) is listed as “significant percentage of the parent ^19F–C8–6–I remained” and the “Defluorination in liver microsomes” value ([3]; mouse, rat and human liver microsomes) is listed as “No defluorination was observed”.

For `CCCn1c(=O)c2[nH]c(C3CCCC3)nc2n(CCC)c1=O` [DPCPX], the “CPA-induced α-Syn aggregation and neurodegeneration” value [1] is listed as “prevented the CPA-induced α-Syn aggregation and neurodegeneration”.

With `Cn1c(=O)c2c(nc(CCCCCCNC3CCc4ccccc43)n2CCC[18F])n(C)c1=O` (stereo not drawn) [^18F–C8–6–I] the “Parent compound share of the radioactivity signal” value [4] was at least 95%, the “Standardized uptake value in the whole brain” value ([5]; after 50 min) was 0.21 SUV and the “Maximum standardized uptake value in the whole brain” value ([5]; dynamic PET, tail vein injection) was 0.47 SUV. The “Defluorination in vivo (from bone uptake)” value ([6]; mouse, in vivo) was “little defluorination occurred in vivo”, the blood5min/blood20min ([6]; ratio of blood radioactivity) was 1.1 and the blood5min/blood60min ([6]; ratio of blood radioactivity) was 1.9. For the same molecule, the brain5min/brain20min ([6]; ratio of brain uptake) was 1.7, the brain5min/brain60min ([6]; ratio of brain uptake) was 3.4 and the “Biodistribution, blood” value ([6]; 5 min p.i.) was 0.76 ± 0.040 %ID/g. The “Biodistribution, bone” value ([6]; 5 min p.i.) was 1.00 ± 0.18 %ID/g, the “Biodistribution, brain” value ([6]; 5 min p.i.) was 0.17 ± 0.014 %ID/g and the “Biodistribution, heart” value ([6]; 5 min p.i.) was 2.34 ± 0.26 %ID/g. For the same molecule, the “Biodistribution, kidney” value ([6]; 5 min p.i.) was 16.26 ± 1.82 %ID/g, the “Biodistribution, large intestine” value ([6]; 5 min p.i.) was 2.98 ± 0.94 %ID/g and the “Biodistribution, liver” value ([6]; 5 min p.i.) was 5.12 ± 1.65 %ID/g. For the same molecule, the “Biodistribution, lung” value ([6]; 5 min p.i.) was 7.03 ± 1.24 %ID/g, the “Biodistribution, small intestine” value ([6]; 5 min p.i.) was 8.56 ± 2.02 %ID/g and the “Biodistribution, spleen” value ([6]; 5 min p.i.) was 6.54 ± 0.88 %ID/g. For the same molecule, the “Biodistribution, blood” value ([6]; 10 min p.i.) was 0.78 ± 0.14 %ID/g, the “Biodistribution, bone” value ([6]; 10 min p.i.) was 1.24 ± 0.44 %ID/g and the “Biodistribution, brain” value ([6]; 10 min p.i.) was 0.14 ± 0.027 %ID/g. For the same molecule, the “Biodistribution, heart” value ([6]; 10 min p.i.) was 1.77 ± 0.17 %ID/g, the “Biodistribution, kidney” value ([6]; 10 min p.i.) was 11.86 ± 1.74 %ID/g and the “Biodistribution, large intestine” value ([6]; 10 min p.i.) was 3.06 ± 0.73 %ID/g. For the same molecule, the “Biodistribution, liver” value ([6]; 10 min p.i.) was 6.91 ± 2.02 %ID/g, the “Biodistribution, lung” value ([6]; 10 min p.i.) was 5.51 ± 0.44 %ID/g and the “Biodistribution, small intestine” value ([6]; 10 min p.i.) was 11.18 ± 3.11 %ID/g. The “Biodistribution, spleen” value ([6]; 10 min p.i.) was 5.49 ± 1.05 %ID/g, the “Biodistribution, blood” value ([6]; 20 min p.i.) was 0.67 ± 0.19 %ID/g and the “Biodistribution, bone” value ([6]; 20 min p.i.) was 1.18 ± 0.005 %ID/g. The “Biodistribution, brain” value ([6]; 20 min p.i.) was 0.10 ± 0.013 %ID/g, the “Biodistribution, heart” value ([6]; 20 min p.i.) was 1.14 ± 0.040 %ID/g and the “Biodistribution, kidney” value ([6]; 20 min p.i.) was 11.02 ± 0.48 %ID/g. For the same molecule, the “Biodistribution, large intestine” value ([6]; 20 min p.i.) was 2.83 ± 0.068 %ID/g, the “Biodistribution, liver” value ([6]; 20 min p.i.) was 6.64 ± 1.44 %ID/g and the “Biodistribution, lung” value ([6]; 20 min p.i.) was 5.52 ± 0.72 %ID/g. The “Biodistribution, small intestine” value ([6]; 20 min p.i.) was 13.02 ± 1.24 %ID/g, the “Biodistribution, spleen” value ([6]; 20 min p.i.) was 5.71 ± 0.69 %ID/g and the “Biodistribution, blood” value ([6]; 40 min p.i.) was 0.48 ± 0.029 %ID/g. For the same molecule, the “Biodistribution, bone” value ([6]; 40 min p.i.) was 1.04 ± 0.27 %ID/g, the “Biodistribution, brain” value ([6]; 40 min p.i.) was 0.10 ± 0.011 %ID/g and the “Biodistribution, heart” value ([6]; 40 min p.i.) was 1.01 ± 0.16 %ID/g. For the same molecule, the “Biodistribution, kidney” value ([6]; 40 min p.i.) was 8.65 ± 1.21 %ID/g, the “Biodistribution, large intestine” value ([6]; 40 min p.i.) was 2.69 ± 0.26 %ID/g and the “Biodistribution, liver” value ([6]; 40 min p.i.) was 4.76 ± 0.54 %ID/g. For the same molecule, the “Biodistribution, lung” value ([6]; 40 min p.i.) was 3.00 ± 1.40 %ID/g, the “Biodistribution, small intestine” value ([6]; 40 min p.i.) was 9.35 ± 1.82 %ID/g and the “Biodistribution, spleen” value ([6]; 40 min p.i.) was 5.80 ± 0.83 %ID/g. The “Biodistribution, blood” value ([6]; 60 min p.i.) was 0.39 ± 0.11 %ID/g, the “Biodistribution, bone” value ([6]; 60 min p.i.) was 1.20 ± 0.34 %ID/g and the “Biodistribution, brain” value ([6]; 60 min p.i.) was 0.05 ± 0.005 %ID/g. For the same molecule, the “Biodistribution, heart” value ([6]; 60 min p.i.) was 0.49 ± 0.018 %ID/g, the “Biodistribution, kidney” value ([6]; 60 min p.i.) was 4.27 ± 0.37 %ID/g and the “Biodistribution, large intestine” value ([6]; 60 min p.i.) was 2.50 ± 0.93 %ID/g. For the same molecule, the “Biodistribution, liver” value ([6]; 60 min p.i.) was 5.74 ± 1.12 %ID/g, the “Biodistribution, lung” value ([6]; 60 min p.i.) was 1.42 ± 0.22 %ID/g and the “Biodistribution, small intestine” value ([6]; 60 min p.i.) was 12.33 ± 0.81 %ID/g. For the same molecule, the “Biodistribution, spleen” value ([6]; 60 min p.i.) was 3.79 ± 0.33 %ID/g.
